Laboratory results from patent US6875761B2 (Eisai Co., Ltd., priority 1997, dated 2005).
Counter-ions that a name gives are not always drawn.

Assays:
serotonin 1A receptor = target: T1, serotonin 1A receptor (Rattus norvegicus, UniProt P19327); test: Binding test on [3H] 8-hydroxy-dipropylaminotetralin, hippocampus receptor fraction; design: species or system SD rats; details: rat hippocampus receptor fraction, 0.5 nM [3H] 8-OH-DPAT, room temperature 30 min; read-out: 5HT1
T1 construct: To the receptor fraction of the hippocampus were added a test compound and 0.5 nM of [^3H]; 8-hydroxy-dipropylaminotetralin; from tissue; host or cells: rat hippocampus membrane fraction
T1 sequence (P19327 1-422): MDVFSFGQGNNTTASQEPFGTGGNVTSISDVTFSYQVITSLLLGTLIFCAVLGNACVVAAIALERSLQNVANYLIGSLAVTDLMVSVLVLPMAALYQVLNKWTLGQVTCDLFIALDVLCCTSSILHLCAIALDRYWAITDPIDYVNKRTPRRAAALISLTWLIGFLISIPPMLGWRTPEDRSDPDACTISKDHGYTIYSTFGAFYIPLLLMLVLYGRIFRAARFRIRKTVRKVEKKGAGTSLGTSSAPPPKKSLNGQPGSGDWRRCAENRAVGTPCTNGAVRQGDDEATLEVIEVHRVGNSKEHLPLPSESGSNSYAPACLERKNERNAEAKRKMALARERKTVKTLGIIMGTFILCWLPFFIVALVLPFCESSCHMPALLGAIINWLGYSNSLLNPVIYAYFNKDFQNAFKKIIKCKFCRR

serotonin 2 receptor = target: T2, serotonin 2 receptor (Rattus norvegicus, UniProt P14842); test: Binding test on [3H] ketanserin, cerebral cortex receptor fraction; design: species or system SD rats; details: 0.3 nM [3H] ketanserin, 37° C. 15 min, read-out: 5HT2
T2 construct: To the receptor fraction of the cerebral cortex were added a test compound and 0.3 nM of [^3H] ketanserin; from tissue; host or cells: rat cerebral cortex membrane fraction
T2 sequence (P14842 whole entry): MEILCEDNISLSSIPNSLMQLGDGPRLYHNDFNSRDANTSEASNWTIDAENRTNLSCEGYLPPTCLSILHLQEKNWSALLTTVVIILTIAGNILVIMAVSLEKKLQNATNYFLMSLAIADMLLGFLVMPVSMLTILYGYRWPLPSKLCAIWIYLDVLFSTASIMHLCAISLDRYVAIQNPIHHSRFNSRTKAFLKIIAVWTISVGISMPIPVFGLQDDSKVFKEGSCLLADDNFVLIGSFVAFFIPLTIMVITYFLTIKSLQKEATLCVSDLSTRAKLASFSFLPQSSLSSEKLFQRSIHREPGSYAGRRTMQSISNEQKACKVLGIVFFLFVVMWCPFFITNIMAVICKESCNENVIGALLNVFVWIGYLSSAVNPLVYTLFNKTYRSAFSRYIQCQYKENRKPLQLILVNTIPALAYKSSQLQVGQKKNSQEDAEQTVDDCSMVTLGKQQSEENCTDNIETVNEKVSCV

Row | Compound | Ki (serotonin 1A receptor) | Ki (serotonin 2 receptor)
1 | CCN1CCN(c2nc(-c3ccc(CCCO)cc3)cc3sccc23)CC1 [Example 465, 4-(4-ethylpiperazin-1-yl)-6-[4-(3-hydroxypropy)phenyl]thieno[3,2-c]pyridine dihydrochloride] | 0.00628 µM | 0.00711 µM
2 | CCN1CCN(c2nc(-c3ccc(C(=O)CC(C)C)cc3)cc3ccsc23)CC1 [Example 272, 7-(1-ethylpiperazin-4-yl)-5-[4-(3-methylbutanoyl)phenyl]thieno[2,3-c]pyridine dihydrochloride] | 0.16 µM | 0.0225 µM
3 | CCN1CCN(c2nc(-c3ccc(OCCn4ccnc4)cc3)cc3ccccc23)CC1 [Example 56, 3-{4-[2-(1-Imidazonyl)Ethoxy]phenyl}-1-(4-Ethylpiperazin-1-Yl)Isoquinoline Hydrochloride] | 0.0374 µM | 0.0595 µM
4 | CCN1CCN(c2nc(-c3ccc(O[C@@H](C)CO)cc3)cc3ccoc23)CC1 [Example 303, 7-(1-ethylpiperazin-4-yl)-5-{4-[(S)-2-hydroxy-1-methylethoxy]phenyl}furo[2,3-c]pyridine dihydrochloride] | 0.00053 µM | 0.0444 µM
5 | CCN1CCN(c2nc(-c3ccc(C(C)(C)CCO)cc3)cc3ccsc23)CC1 [Example 443, 7-(4-ethylpiperazin-1-yl)-5-[4-(3-hydroxy-1,1-dimethylpropyl)phenyl]thieno[2,3-c]pyridine dihydrochloride] | 0.0102 µM | 0.00185 µM
6 | CCCC(O)c1ccc(-c2cc3sccc3c(N3CCN(CC)CC3)n2)cc1 (centres unmarked) [Example 283, 4-(4-ethylpiperazin-1-yl)-6-[4-1-hydroxybutyl)phenyl]thieno[3,2-c]pyridine oxalate] | 0.00571 µM | 0.00643 µM
7 | CCN1CCN(c2nc(/C=C/c3ccc(N4CCOCC4)nc3)cc3ccccc23)CC1 [Example 200, 3-[(E)-2-[2-(4-Morpholinyl)Pyridin-5-Yl]Ethenyl]-1-(4-Ethylpiperazin-1-Yl)Isoquinoline Hydrochloride] | 0.0773 µM | 0.00733 µM
8 | CCN1CCN(c2nc(C#Cc3ccc(OC)cc3)cc3ccccc23)CC1 [Example 178, 1-(1-Ethylpiperazin-4-Yl)-3-(4-Methoxyphenyl)Ethynylisoquinoline Dihydrochloride] | 0.0564 µM | 0.0002 µM
9 | CCN1CCN(c2nc(-c3ccc(CCC(C)(C)O)cc3)cc3ccsc23)CC1 [Example 439, 7-(4-ethylpiperazin-1-yl)-5-[4-(3-hydroxy-3-methylbutyl)phenyl]thieno[2,3-c]pyridine dihydrochloride] | 0.0442 µM | 0.00603 µM
10 | CCN1CCN(c2nc(-c3ccc(OCCO)c(C#N)c3)cc3ccccc23)CC1 [Example 417, 1-(4-ethylpiperazin-1-yl)-3-[3-cyano-4-(2-hydroxyethoxy)phenyl]isoquinoline] | 0.0134 µM | 0.0045 µM
11 | CCN1CCN(c2nc(-c3ccc(S(=O)(=O)CCCOC)cc3)cc3ccccc23)CC1 [Example 350, 1-(4-ethylpiperazin-1-yl)-3-{4-[(3-methoxypropyl)sulfonyl]phenyl}isoquinoline] | 0.0026 µM | 0.0167 µM
12 | CCN1CCN(c2nc(CC(O)c3ccccc3)cc3ccccc23)CC1 (centres unmarked) [Example 420, 1-(4-ethylpiperazin-1-yl)-3-(2-hydroxy-2-phenylethyl)isoquinoline] | 0.117 µM | 0.0224 µM
13 | CCN1CCN(c2nc(-c3ccnc(Cl)c3)cc3ccccc23)CC1 [406 2-chloro, 1-(4-ethylpiperazin-1-yl)-3-(2-chloropyridin-4-yl)isoquinoline] | 0.0122 µM | 0.0111 µM
14 | CCN1CCN(c2nc(-c3ccc(C(F)CCO)cc3)cc3ccccc23)CC1 (centres unmarked) [Example 27, 1-(1-Ethylpiperazin-4-yl)-3-[4-(3-hydroxy-1-fluoropropyl)phenyl]isoquinoline] | 0.0294 µM | 0.00247 µM
15 | CCN1CCN(c2nc(CCc3ccc(OC)cc3)cc3ccccc23)CC1 [Example 106, 1-(1-Ethylpiperazin-4-yl)-3-(4-methoxyphenethyl)isoquinoline] | 0.07 µM | 0.0306 µM
16 | CCN1CCN(c2nc(C(C)=Cc3ccccc3)cc3ccccc23)CC1 [Example 192, 1-(1-Ethylpiperazin-4-Yl)-3-(Cis-1-Methyl-2-Phenylethenyl) Isoquinoline Oxalate] | 0.0667 µM | 0.00785 µM
17 | CCN1CCN(c2nc(-c3ccc(C(C)(C)CCO)cc3)cc3ccccc23)CC1 [Example 390, Oxalate] | 0.0075 µM | 0.0111 µM
18 | CCN1CCN(c2nc(-c3ccc(C(=O)NC4CCCC4)cc3)cc3ccsc23)CC1 [Example 453, 7-(4-ethylpiperazin-1-yl)-5-[4-(N-cyclopentylcarbamoyl)phenyl]thieno[2,3-c]pyridine dihydrochloride] | 0.0222 µM | 0.0454 µM
19 | CCN1CCN(c2nc(-c3ccc(OCCCO)cc3)cc3sccc23)CC1 [Example 462, 4-(4-ethylpiperazin-1-yl)-6-[4-(3-hydroxypropoxy)phenyl]thieno[3,2-c]pyridine dihydrochloride] | 0.00483 µM | 0.00284 µM

The next lines start with the values.

Row | Ki (serotonin 1A receptor) | Ki (serotonin 2 receptor) | Compound
20 | 0.0036 µM | 0.0128 µM | CCN1CCN(c2nc(-c3ccc(C(O)C(C)(C)CO)cc3)cc3ccccc23)CC1 (centres unmarked) [Example 391, 1-(4-Ethylpiperazin-1-yl)-3-[4-(1,3-Dihydroxy-2,2-Dimethylpropyl)Phenyl]Isoquinoline Dihydrochloride]
21 | 0.0555 µM | 0.0195 µM | CCN1CCN(c2nc(-c3cc(OC)cc(OC)c3)cc3ccccc23)CC1 [Example 15, 3-(3,5-dimethoxyphenyl)-1-(4-ethylpiperazin-1-yl)isoquinoline Dihydrochloride]
22 | 0.0195 µM | 0.0063 µM | CCN1CCN(c2nc(-c3ccc(CC(C)O)cc3)cc3ccccc23)CC1 (centres unmarked) [Example 376, 1-(4-ethylpiperazin-1-yl)-3-[4-(2-hydroxypropyl)phenyl]isoquinoline oxalate]
23 | 0.0226 µM | 0.346 µM | CCNC(=O)c1ccc(-c2cc3ccsc3c(N3CCN(CC)CC3)n2)cc1 [Example 448, 7-(4-ethylpiperazin-1-yl)-5-[4-(N-ethylcarbamoyl)phenyl]thieno[2,3-c]pyridine dihydrochloride]
24 | 0.0756 µM | 0.0043 µM | CCN1CCN(c2nc(-c3ccc(C4CCOCC4)cc3)cc3ccccc23)CC1 [Example 83, 3-[4-(Tetrahydropyran-4-yl)phenyl]-1-(4-ethylpiperazin-1-yl)isoquinoline Hydrochloride]
25 | 0.015 µM | 0.0036 µM | CCCS(=O)(=O)Nc1ccc(-c2cc3ccccc3c(N3CCN(CC)CC3)n2)cc1 [Example 72, 3-(4-Propylsulfonylaminophenyl)-1-(4-Ethylpiperazin-1-Yl)Isoquinoline Hydrochloride]
26 | 0.0326 µM | 0.0254 µM | CCC(O)c1ccc(-c2cc3ccccc3c(N3CCN(CC)CC3)n2)s1 (centres unmarked) [Example 165, 1-(1-Ethylpiperazin-4-yl)-3-[2-(1-hydroxypropyl)thiophen-5-yl)isoquinoline hydrochloride]
27 | 0.00772 µM | 0.0379 µM | CCCS(=O)(=O)c1ccc(-c2cc3ccsc3c(N3CCN(CC)CC3)n2)cc1 [Example 451, 7-(4-ethylpiperazin-1-yl)-5-(4-propanesulfonylphenyl)thieno[2,3-c]pyridine dihydrochloride]
28 | 0.0305 µM | 0.0076 µM | CCN1CCN(c2nc(-c3ccc(CC(C)=O)cc3)cc3ccccc23)CC1 [Example 375, 1-(4-ethylpiperazin-1-yl)-3-[4-(2-oxopropyl)phenyl]isoquinoline dihydrochloride]
29 | 0.0057 µM | 0.0089 µM | CCN1CCN(c2nc(-c3ccc(S(=O)(=O)N4CCSCC4)cc3)cc3ccccc23)CC1 [Example 76, 3-[(4-Thiomorpholinyl)Sulfonylphenyl]-1-(4-Ethylpiperazin-1-Yl)Isoquinoline Hydrochloride]
30 | 0.023 µM | 0.0372 µM | CCN1CCN(c2nc(/C=C/c3ccccc3OC)cc3ccccc23)CC1 [Example 195, 1-(1-Ethylpiperazin-4-Yl)-3-[Trans-2-(2-Methoxyphenyl)Ethenyl]Isoquinoline Oxalate]
31 | 0.0008 µM | 0.0163 µM | CCNS(=O)(=O)Cc1ccc(-c2cc3ccccc3c(N3CCN(CC)CC3)n2)cc1 [Example 80, 3-(4-Ethylaminosulfonylmethylphenyl)-1-(4-Ethylpiperazin-1-Yl)Isoquinoline Hydrochloride]
32 | 0.0009 µM | 0.0007 µM | CCCS(=O)(=O)NCc1ccc(-c2cc3ccccc3c(N3CCN(CC)CC3)n2)cc1Cl [Example 92, 3-(3-Chloro-4-propylsulfonylaminomethylphenyl)-1-(4-ethylpiperazin-1-yl)isoquinoline Hydrochloride]
33 | 0.0122 µM | 0.03 µM | CCCC(O)c1ccc(-c2cc3ccsc3c(N3CCN(CC)CC3)n2)cc1 (centres unmarked) [Example 446, 7-(4-ethylpiperazin-1-yl)-5-[4-(1-hydroxybutyl)phenyl]thieno[2,3-c]pyridine dihydrochloride]
34 | 0.0222 µM | 0.003 µM | CCCC(=O)Nc1ccc(-c2cc3ccccc3c(N3CCN(CC)CC3)n2)cn1 [Example 128, 3-(2-propylcarbonylaminopyridin-5-yl)-1-(4-ethylpiperazin-1-yl)isoquinoline hydrochloride]
